Measurements: PubChem BioAssay (NCI)
Values joined by “and” are separate entries in the source; they are usually repeats but may differ in a detail not shown here. Equal entries are not always repeated.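 These data come from cells grown in 96-well plates and exposed to compound for 48 hours at five concentrations. GI50 marks 50% less growth. Definition used: TGI = concentration required for complete inhibition of growth.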 *1 amine or outer side, *2 acyl side, *3 side chain or, on linkers, in order; H or OH if unused. Where a SMILES comes first, the peptide text is derived from it. [ ]: non-standard residue; d: D form. The star is where a group is joined. ξ: configuration not given here. X15 = CCN(CC)c1ccc2cc(N*)c(=O)oc2c1; dIva = CC[C@@](C)(N)C(=O)O; X14 = O=C(OCCN[*:1])[*:2]; Aib = CC(C)(N)C(=O)O; ξP = O=C(O)C1CCCN1; βAla = NCCC(=O)O

Experiments:
Test in all cases: growth of human tumour cells (NCI), 48 h
[1] = tested on: SF-268 CNS
[2] = tested on: UO-31 renal
[3] = tested on: PC-3 prostate
[4] = tested on: RXF 393 renal
[5] = tested on: T-47D breast
[6] = tested on: SR leukemia
[7] = tested on: CAKI-1 renal
[8] = tested on: SK-MEL-2 melanoma
[9] = tested on: NCI/ADR-RES ovarian
[10] = tested on: SW-620 colon

Row | Structure (SMILES) | GI50 [1] [µM] | TGI [1] [µM] | GI50 [2] [µM] | TGI [2] | GI50 [3] [µM] | TGI [3] | GI50 [4] [µM] | TGI [4] | GI50 [5] [µM] | TGI [5] | GI50 [6] [µM] | TGI [6] | GI50 [7] [µM] | TGI [7] | GI50 [8] [µM] | TGI [8] | GI50 [9] [µM] | TGI [9] [µM] | GI50 [10] [µM] | TGI [10] [µM]
1 | CC(C)N1C(NNC(=O)c2cnccn2)=NS(=O)(=O)c2ccccc21 | > 100 | > 100 | > 100 | > 100 µM | > 100 | > 100 µM | > 100 | > 100 µM | > 100 | > 100 µM | > 100 | > 100 µM | > 100 | > 100 µM | > 100 | > 100 µM | > 100 | > 100 | > 100 | > 100
2 | C/C=C/[C@@H]1OC(=O)C2=C[C@@H](O)[C@@H](/C=C/C)O[C@H]21 | 24.1 | > 82.5 | 3.05 | > 35.7 µM | 13.9 | 28.2 µM | 6.27 | 28.8 µM | 3.3 | 13 µM | 16.8 | > 100 µM | 1.71 | 3.81 µM | 23.5 | > 58.6 µM | 19.2 | > 56.2 | 0.989 | 3.13
3 | OCC1OC(n2cnc3c(=S)nc[nH]c32)C(O)C1O (stereo not given) | > 23.9 | > 2500 |  | > 2500 µM | 6.71 | > 2500 µM | > 100 | > 2500 µM | 2.95 | > 2500 µM |  | > 2500 µM | 6.94 | > 2500 µM | > 100 | > 2500 µM | 3.52 | > 2500 | 7.29 | > 2500
4 | O=C(c1cccnc1)c1cc(-c2ccccn2)c(=O)n2ccccc12 | > 100 | > 100 | > 100 | > 100 µM | > 100 | > 100 µM | > 100 | > 100 µM | > 100 | > 100 µM | > 100 | > 100 µM | > 100 | > 100 µM | > 100 | > 100 µM | > 100 | > 100 | > 100 | > 100
5 | CCC(/C=C/c1ccccc1)=N\Nc1ccc(Cl)c(Cl)c1 |  | > 100 |  | 57.9 µM |  | > 100 µM |  | 58.4 µM |  | > 100 µM |  | > 100 µM |  | > 100 µM |  | 40.9 µM |  | > 100 |  | > 100
6 | COc1ccc(/C=C2\CCC(CN(C)C)C2=O)cc1OC (stereo not given) |  | 27.1 |  | 24.6 µM |  | 13.9 µM |  | 5.16 µM |  | 44.5 µM |  | 9.26 µM |  | 10 µM |  | 26.9 µM |  | 7.19 |  | 4.44
7 | CN(C(=O)c1ccncc1)c1ccccc1 |  | > 100 |  | > 100 µM |  | > 100 µM |  | > 100 µM |  | > 100 µM |  | > 100 µM |  | > 100 µM |  | > 100 µM |  | > 100 |  | > 100
8 | CS(=O)(=O)Nc1ccc(N=Cc2c(O)[nH]c3ccccc23)cc1 | > 25 | > 25 | > 8.56 | > 25 µM | > 25 | > 25 µM | > 25 | > 25 µM | > 25 | > 25 µM | > 25 | > 25 µM | > 13.9 | > 25 µM | > 25 | > 25 µM | > 25 | > 25 | > 25 | > 25
9 | CSc1ccccc1C#Cc1ccccc1C#CCCCCO | 13.7 | 28.4 | 12.6 | 25.4 µM | 16.2 | 38 µM | 3.86 | 17.5 µM | 15 | 34.5 µM | 3.54 | 17.5 µM | 7.13 | 20.5 µM | 17.9 | 35.4 µM | 11.5 | 31.1 | 11 | 26.2
10 | CC1(C)CC[C@]2(C(=O)N3CCOCC3)CC[C@]3(C)C(=CC[C@@H]4[C@@]5(C)C/C(=C/c6ccncc6)C(=O)C(C)(C)[C@@H]5CC[C@]43C)[C@@H]2C1 | 6.33 | > 100 | 0.893 | 14.2 µM | 0.375 | 46.1 µM | 1.22 | 3.03 µM | 0.781 | > 100 µM | 0.365 | > 100 µM | 1.07 | > 100 µM | 2.33 | 7.27 µM | 2.5 | 46.4 | 2.29 | > 100
11 | COc1cc2c3c(n(C)c(=O)c2cc1OC)-c1cc2c(cc1/C3=C\C(N)CN)OCO2 (stereo not given) | 0.692 | 15 | 4.44 | > 36.5 µM | 5.27 | 20.5 µM | 0.666 | 3.38 µM | 1.94 | 10.3 µM | 0.219 |  | 2.27 | 10.4 µM | 4.71 | > 22.8 µM | > 74.8 | > 100 | 0.689 | 11.9
12 | CCCCN(CCCC)c1ccc(C(=NC(C)CCCN(CC)CC)c2ccc(N(C)C)cc2)cc1 (stereo not given) | 0.864 | 2.06 | 0.713 | 1.42 µM | 0.885 | 1.93 µM | 0.73 | 1.46 µM | 0.809 | 1.89 µM | 0.708 | 1.82 µM | 1.17 | 3.41 µM | 0.814 | 1.81 µM | 0.893 | 1.94 | 0.793 | 1.68
13 | CCN(CC)c1ccc2cc(NC(=O)OCCNC(=O)CCNC(=O)[C@H](CC(C)C)NC(=O)C(C)(C)NC(=O)C(C)(C)NC(=O)[C@H](CC(C)C)NC(=O)CCNC(=O)C(C)(C)NC(=O)[C@H](CC(C)C)NC(=O)CCNC(=O)[C@@](C)(CC)NC(=O)[C@H](C)NC(=O)CCNC(=O)C(C)(C)NC(=O)[C@H](C)NC(=O)[C@@H]3CCCN3C(=O)[C@@](C)(CC)NC(=O)[C@H](Cc3ccccc3)NC(=O)C3CCCN3C(=O)C(C)(C)NC(=O)C3CCCN3C(=O)C(C)(C)NC(C)=O)c(=O)oc2c1 (stereo not given in full) (Ac-[Aib][ξP][Aib][ξP]F[dIva]PA[Aib][βAla]A[dIva][βAla]L[Aib][βAla]L[Aib][Aib]L[βAla][X14]-X15) | 0.00435 | 0.0187 | 0.0296 | 0.114 µM | 0.00311 | 0.0281 µM | 0.0049 | 0.0173 µM | 0.00302 | 0.0143 µM | 0.00423 | 0.0235 µM | 0.156 | 0.304 µM | 0.00266 | 0.00665 µM | 0.176 | 0.378 | 0.0048 | 0.102
14 | Nc1n[nH]c2cccc(C#Cc3cccc(C(=O)Nc4cc(CN5CCOCC5)cc(C(F)(F)F)c4)c3)c12 | 5.66 | 22.1 | 2.03 | 11.1 µM | 4.39 | 19 µM | 2.21 | 7.92 µM | 2.23 | 10.2 µM | 2.69 | 22.9 µM | 5.11 | 19.4 µM | 2.62 | 10.6 µM | 4.59 | 23.3 | 4.59 | 24.3
15 | S=C(Nc1cc(Cl)c(Cl)cc1Cl)SCc1ccccc1 |  | > 100 |  | > 100 µM |  | > 100 µM |  | > 100 µM |  | > 100 µM |  | 10.8 µM |  | 44 µM |  | > 100 µM |  | 54.6 |  | > 100
16 | Nc1nc(N)c(N=O)c(OCC2CCCCC2)n1 | 5.82 | > 95.4 | 3.24 | 39.1 µM and 39.7 µM | 3.23 | > 100 µM and 22.9 µM | 8.04 | 42.3 µM and 48.1 µM | 4.09 | > 58.6 µM and 23.9 µM | 6.22 | > 85.9 µM and 27.4 µM | 3.99 | 34 µM and 78.9 µM | 8.52 | 32.8 µM and 24.6 µM |  | > 100 | 20.4 | > 100
17 | CSC1(SC2=NCCN2)SC2(NCCN2)S1 |  | 40.3 |  | 32.2 µM |  | 34.3 µM |  | 20.4 µM |  | 5.91 µM |  | 37.7 µM |  | 27 µM |  | 39.4 µM |  | > 91.6 |  | 51.6
18 | COc1ccc2c(c1)C(C)Cc1c(Cl)nc(C)nc1N2C (stereo not given) | 2.6 | 18.6 | 3.99 | 36.1 µM | 2.99 | > 100 µM | 2.78 | 20.8 µM | 3.43 | > 100 µM | 2.44 | > 100 µM | 2.56 | > 100 µM | 10.6 | 29.5 µM | 1.7 | 16.7 | 2.45 | 24.4
19 | CCCc1cc(=O)n2c(C(=O)Nc3ccccc3OC)c(C(=O)Nc3ccc(F)cc3)sc2n1 | 14.3 | 38 | 23.4 | 81.8 µM | 3.61 | 12.9 µM | 5.14 | 12.1 µM | 71.8 | > 160 µM | 4.57 | 25.3 µM | 35.3 | > 160 µM | 7.53 | 29.6 µM | 39.2 | > 160 | 31 | > 160
20 | CC(C)(C#N)c1cc(C(=O)Nc2cc(Nc3ncccc3-c3ncnc4nc[nH]c34)ccc2F)cc(C(F)(F)F)c1 |  | > 10 | 0.189 |  |  | > 4.27 µM |  | > 2.89 µM |  | > 3.23 µM |  | > 10 µM | 1.14 | > 3.55 µM | 0.315 | > 2.08 µM | 1.62 | > 10 | 0.58 | > 10
21 | Nc1n[nH]c2ccc([C@@H]3Nc4ccc5[nH]ncc5c4[C@H]4C5C=CC(C5)[C@@H]34)cc12 (stereo not given in full) | 1.36 | 31.5 | 0.769 | 31.7 µM | 0.407 | 22.7 µM | 0.11 | 0.599 µM | 10.9 | 77.1 µM | 0.144 | > 100 µM | 0.23 | 21.6 µM | 4.14 | 28 µM | 0.298 | 2.28 | 0.367 | 40.4
22 | CC(C)c1ccc(Nc2nccc(-c3cnn4ncccc34)n2)cc1 | 0.692 | 4.42 | 0.804 | > 9.35 µM | 0.615 | > 12.3 µM | 0.28 | 0.827 µM | 0.469 | > 6.22 µM | 0.234 | > 25 µM | 0.8 | > 15.4 µM | 0.411 | 1.13 µM | 0.584 | 5.27 | 0.516 | 9.07
23 | O=C(CCCSc1nc(-c2ccccc2)cc(-c2ccc(Cl)cc2)n1)NO | 1.88 | 7.14 | 0.352 | 2.1 µM | 2.19 | 12.3 µM | 0.445 | 2.55 µM | 1.92 | 16.2 µM | 0.364 | 13.2 µM | 0.355 | 9.36 µM | 4.39 | 18.5 µM | 0.351 | 2.58 | 1.66 | 13
24 | CCCCCCCOc1c(OC)cc(C2CC(=O)Nc3c2c(C)nn3-c2nc3ccccc3[nH]2)cc1OC (stereo not given) | 2.12 | 6.68 | 1.63 | 4.82 µM | 3.67 | > 100 µM | 1.96 | 5.02 µM | 3.95 | > 100 µM | 3.08 | > 100 µM | 1.92 | 4.25 µM | 3.28 | 12.6 µM | 3.83 | > 100 | 2.11 | 5.18
25 | CCOC(=O)c1nc(Nc2ccc(Cl)cc2)c2ccccc2n1 | 10.1 | 25.1 | 8.87 | 18.8 µM | 11.6 | > 50 µM | 7.35 | 16.8 µM | 8.36 | 22.5 µM | 8.87 | > 50 µM | 7.73 | 16.3 µM | 13.2 | 30.4 µM | 13.2 | 22.9 | 17.2 | > 50
